# Test system: 677734-321-R-J1-PDC complex spheroid viability
# Assay: Anticancer human tumor 677734-321-R-J1-PDC patient-derived soft tissue sarcoma cell line growth inhibition [POLQ]
# Conditions: for IC50: curve of first compound; for viability, T/C: stronger effect = lower value
# Method in brief: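 Three-cell-type spheroids modelling solid tumor plus stroma served as the readout system; POL inhibitors were tested individually and in combination, concentration ranges set by clinical Cmax where known.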
# [1] = second compound 0.0316 µM, first compound 0.0316 µM
# [2] = second compound 0.0316 µM, first compound 0.1 µM
# [3] = second compound 0.0316 µM, first compound 0.316 µM
# [4] = second compound 0.0316 µM, first compound 1 µM
# [5] = second compound 0.0316 µM, first compound 3.16 µM
# [6] = second compound 0.0316 µM, first compound 10 µM
# [7] = second compound 0.1 µM, first compound 0.0316 µM
# [8] = second compound 0.1 µM, first compound 0.1 µM
# [9] = second compound 0.1 µM, first compound 0.316 µM
# [10] = second compound 0.1 µM, first compound 1 µM
# [11] = second compound 0.1 µM, first compound 3.16 µM
# [12] = second compound 0.1 µM, first compound 10 µM
# [13] = second compound 0.316 µM, first compound 0.0316 µM
# [14] = second compound 0.316 µM, first compound 0.1 µM
# [15] = second compound 0.316 µM, first compound 0.316 µM
# [16] = second compound 0.316 µM, first compound 1 µM
# [17] = second compound 0.316 µM, first compound 3.16 µM
# [18] = second compound 0.316 µM, first compound 10 µM
# [19] = second compound 1 µM, first compound 0.0316 µM
# [20] = second compound 1 µM, first compound 0.1 µM
# [21] = second compound 1 µM, first compound 0.316 µM
# [22] = second compound 1 µM, first compound 1 µM
# [23] = second compound 1 µM, first compound 3.16 µM
# [24] = second compound 1 µM, first compound 10 µM
# [25] = second compound 3.16 µM, first compound 0.0316 µM
# [26] = second compound 3.16 µM, first compound 0.1 µM
# [27] = second compound 3.16 µM, first compound 0.316 µM
# [28] = second compound 3.16 µM, first compound 1 µM
# [29] = second compound 3.16 µM, first compound 3.16 µM
# [30] = second compound 3.16 µM, first compound 10 µM
# [31] = second compound 10 µM, first compound 0.0316 µM
# [32] = second compound 10 µM, first compound 0.1 µM
# [33] = second compound 10 µM, first compound 0.316 µM
# [34] = second compound 10 µM, first compound 1 µM
# [35] = second compound 10 µM, first compound 3.16 µM
# [36] = second compound 10 µM, first compound 10 µM
# 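Also: spheroids exposed to compounds for one week.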
# 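For viability, T/C in this document: 100% = vehicle DMSO treated spheroids.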
compound,measurement,setting,value
CC(C)n1c(=O)n(C)c2cnc3cc(F)c(-c4ccc(OCCCN5CCCCC5)nc4)cc3c21 + COC1C(OC(N)=O)C(O)C(Oc2ccc3c(O)c(NC(=O)c4ccc(O)c(CC=C(C)C)c4)c(=O)oc3c2C)OC1(C)C,IC50,second compound 0.0316 µM,> 10000 nM
same,IC50,second compound 0.1 µM,> 10000 nM
same,IC50,second compound 0.316 µM,> 10000 nM
same,IC50,second compound 1 µM,> 10000 nM
same,IC50,second compound 3.16 µM,> 10000 nM
same,IC50,second compound 10 µM,> 10000 nM
same,"viability, T/C",[1],117%
same,"viability, T/C",[2],104%
same,"viability, T/C",[3],109%
same,"viability, T/C",[4],107%
same,"viability, T/C",[5],111%
same,"viability, T/C",[6],110%
same,"viability, T/C",[7],104%
same,"viability, T/C",[8],109%
same,"viability, T/C",[9],106%
same,"viability, T/C",[10],111%
same,"viability, T/C",[11],117%
same,"viability, T/C",[12],101%
same,"viability, T/C",[13],108%
same,"viability, T/C",[14],107%
same,"viability, T/C",[15],106%
same,"viability, T/C",[16],113%
same,"viability, T/C",[17],112%
same,"viability, T/C",[18],106%
same,"viability, T/C",[19],108%
same,"viability, T/C",[20],102%
same,"viability, T/C",[21],113%
same,"viability, T/C",[22],113%
same,"viability, T/C",[23],109%
same,"viability, T/C",[24],107%
same,"viability, T/C",[25],107%
same,"viability, T/C",[26],107%
same,"viability, T/C",[27],106%
same,"viability, T/C",[28],115%
same,"viability, T/C",[29],104%
same,"viability, T/C",[30],107%
same,"viability, T/C",[31],109%
same,"viability, T/C",[32],106%
same,"viability, T/C",[33],111%
same,"viability, T/C",[34],113%
same,"viability, T/C",[35],106%
same,"viability, T/C",[36],102%
CC1COCCN1c1cc(-c2ccnn2C)c2ccnc(-c3ccn[nH]3)c2n1 (stereo not given) + Nc1ccc(C#CCN(C(=O)Cc2ncc(C(F)(F)F)cc2C(F)(F)F)c2ccc(F)cc2)nn1,IC50,second compound 0.0316 µM,87.7 nM
same,IC50,second compound 0.1 µM,69.4 nM
same,IC50,second compound 0.316 µM,59.5 nM
same,IC50,second compound 1 µM,60.5 nM
same,IC50,second compound 3.16 µM,56.6 nM
same,IC50,second compound 10 µM,55.1 nM
same,"viability, T/C",[1],74.6%
same,"viability, T/C",[2],46.8%
same,"viability, T/C",[3],11.6%
same,"viability, T/C",[4],8.34%
same,"viability, T/C",[5],8.12%
same,"viability, T/C",[6],8.31%
same,"viability, T/C",[7],92.1%
same,"viability, T/C",[8],30.4%
same,"viability, T/C",[9],10.6%
same,"viability, T/C",[10],9.63%
same,"viability, T/C",[11],8.82%
same,"viability, T/C",[12],8.21%
same,"viability, T/C",[13],82.1%
same,"viability, T/C",[14],23.7%
same,"viability, T/C",[15],8.36%
same,"viability, T/C",[16],8.25%
same,"viability, T/C",[17],7.35%
same,"viability, T/C",[18],8.3%
same,"viability, T/C",[19],89.5%
same,"viability, T/C",[20],19.4%
same,"viability, T/C",[21],9.09%
same,"viability, T/C",[22],10.1%
same,"viability, T/C",[23],7.46%
same,"viability, T/C",[24],7.2%
same,"viability, T/C",[25],77%
same,"viability, T/C",[26],21.9%
same,"viability, T/C",[27],17.6%
same,"viability, T/C",[28],8.48%
same,"viability, T/C",[29],7.93%
same,"viability, T/C",[30],7.03%
same,"viability, T/C",[31],82.8%
same,"viability, T/C",[32],15%
same,"viability, T/C",[33],9.59%
same,"viability, T/C",[34],9.21%
same,"viability, T/C",[35],10.5%
same,"viability, T/C",[36],11.5%
CCc1cc2c(N3CCc4c(cc(Cn5ccnc5)cc4-c4cn(C)nc4C(F)(F)F)C3=O)ccnc2c(OC)n1 + Nc1ccc(C#CCN(C(=O)Cc2ncc(C(F)(F)F)cc2C(F)(F)F)c2ccc(F)cc2)nn1,IC50,second compound 0.0316 µM,> 10000 nM
same,IC50,second compound 0.1 µM,4780 nM
same,IC50,second compound 0.316 µM,7550 nM
same,IC50,second compound 1 µM,8720 nM
same,IC50,second compound 3.16 µM,> 10000 nM
same,IC50,second compound 10 µM,5440 nM
same,"viability, T/C",[1],89.5%
same,"viability, T/C",[2],124%
same,"viability, T/C",[3],110%
same,"viability, T/C",[4],70.7%
same,"viability, T/C",[5],63.5%
same,"viability, T/C",[6],38.4%
same,"viability, T/C",[7],88.5%
same,"viability, T/C",[8],111%
same,"viability, T/C",[9],101%
same,"viability, T/C",[10],87.6%
same,"viability, T/C",[11],54.9%
same,"viability, T/C",[12],41.8%
same,"viability, T/C",[13],120%
same,"viability, T/C",[14],103%
same,"viability, T/C",[15],87.1%
same,"viability, T/C",[16],88.9%
same,"viability, T/C",[17],86.1%
same,"viability, T/C",[18],38.1%
same,"viability, T/C",[19],127%
same,"viability, T/C",[20],109%
same,"viability, T/C",[21],100%
same,"viability, T/C",[22],79.1%
same,"viability, T/C",[23],63.9%
same,"viability, T/C",[24],48%
same,"viability, T/C",[25],95.7%
same,"viability, T/C",[26],108%
same,"viability, T/C",[27],113%
same,"viability, T/C",[28],79.8%
same,"viability, T/C",[29],64.3%
same,"viability, T/C",[30],50.9%
same,"viability, T/C",[31],102%
same,"viability, T/C",[32],83.9%
same,"viability, T/C",[33],83.7%
same,"viability, T/C",[34],90.5%
same,"viability, T/C",[35],62.6%
same,"viability, T/C",[36],35.9%
COc1cccc2c1C(=O)c1c(O)c3c(c(O)c1C2=O)CC(O)(C(=O)CO)CC3OC1CC(N)C(O)C(C)O1 (stereo not given) + Nc1ccc(C#CCN(C(=O)Cc2ncc(C(F)(F)F)cc2C(F)(F)F)c2ccc(F)cc2)nn1,IC50,second compound 0.0316 µM,39.8 nM
same,IC50,second compound 0.1 µM,46.7 nM
same,IC50,second compound 0.316 µM,44.4 nM
same,IC50,second compound 1 µM,78.5 nM
same,IC50,second compound 3.16 µM,40.6 nM
same,IC50,second compound 10 µM,41 nM
same,"viability, T/C",[1],55.1%
same,"viability, T/C",[2],29.5%
same,"viability, T/C",[3],4.74%
same,"viability, T/C",[4],1.41%
same,"viability, T/C",[5],1.65%
same,"viability, T/C",[6],1.2%
same,"viability, T/C",[7],61%
same,"viability, T/C",[8],28.5%
same,"viability, T/C",[9],4.99%
same,"viability, T/C",[10],1.48%
same,"viability, T/C",[11],1.35%
same,"viability, T/C",[12],1.19%
same,"viability, T/C",[13],58.5%
same,"viability, T/C",[14],29.6%
same,"viability, T/C",[15],6.1%
same,"viability, T/C",[16],0.73%
same,"viability, T/C",[17],2.36%
same,"viability, T/C",[18],0.63%
same,"viability, T/C",[19],60%
same,"viability, T/C",[20],47.3%
same,"viability, T/C",[21],4.86%
same,"viability, T/C",[22],1.7%
same,"viability, T/C",[23],1.58%
same,"viability, T/C",[24],0.84%
same,"viability, T/C",[25],58.1%
same,"viability, T/C",[26],21.1%
same,"viability, T/C",[27],4.68%
same,"viability, T/C",[28],0.97%
same,"viability, T/C",[29],1.23%
same,"viability, T/C",[30],0.74%
same,"viability, T/C",[31],57.3%
same,"viability, T/C",[32],24.8%
same,"viability, T/C",[33],4.54%
same,"viability, T/C",[34],1.86%
same,"viability, T/C",[35],2.02%
same,"viability, T/C",[36],0.8%
CCc1cc2c(N3CCc4c(cc(Cn5ccnc5)cc4-c4cn(C)nc4C(F)(F)F)C3=O)ccnc2c(OC)n1 + COC1C(OC(N)=O)C(O)C(Oc2ccc3c(O)c(NC(=O)c4ccc(O)c(CC=C(C)C)c4)c(=O)oc3c2C)OC1(C)C,IC50,second compound 0.0316 µM,> 10000 nM
same,IC50,second compound 0.1 µM,> 10000 nM
same,IC50,second compound 0.316 µM,> 10000 nM
same,IC50,second compound 1 µM,> 10000 nM
same,IC50,second compound 3.16 µM,> 10000 nM
same,IC50,second compound 10 µM,> 10000 nM
same,"viability, T/C",[1],111%
same,"viability, T/C",[2],108%
same,"viability, T/C",[3],105%
same,"viability, T/C",[4],106%
same,"viability, T/C",[5],88.7%
same,"viability, T/C",[6],62.5%
same,"viability, T/C",[7],108%
same,"viability, T/C",[8],110%
same,"viability, T/C",[9],109%
same,"viability, T/C",[10],104%
same,"viability, T/C",[11],92.2%
same,"viability, T/C",[12],62.6%
same,"viability, T/C",[13],117%
same,"viability, T/C",[14],105%
same,"viability, T/C",[15],98.4%
same,"viability, T/C",[16],98.7%
same,"viability, T/C",[17],84.8%
same,"viability, T/C",[18],64.6%
same,"viability, T/C",[19],113%
same,"viability, T/C",[20],103%
same,"viability, T/C",[21],96.1%
same,"viability, T/C",[22],100%
same,"viability, T/C",[23],83.5%
same,"viability, T/C",[24],58.6%
same,"viability, T/C",[25],117%
same,"viability, T/C",[26],101%
same,"viability, T/C",[27],108%
same,"viability, T/C",[28],97.5%
same,"viability, T/C",[29],93.1%
same,"viability, T/C",[30],63.6%
same,"viability, T/C",[31],112%
same,"viability, T/C",[32],106%
same,"viability, T/C",[33],109%
same,"viability, T/C",[34],102%
same,"viability, T/C",[35],81.6%
same,"viability, T/C",[36],65%
